{"source": "patent US7001770B1", "about": "“Calpain inhibitors and their applications” (priority 1998, dated 2006)", "assay_in_all_cases": "Apoptosis by annexin V-FITC staining, flow cytometry", "format_in_all_cases": "cell-based", "key": {"HLF cells": {"system": "HLF cells", "conditions": "for Percent Annexin V Positive Staining: 26 hours post treatment", "experimental": "(§1) P53 was administered to the cells by the use of the replication defective adenoviral vector ACN53 described in Wills, et al., supra. The effect of varying concentrations of rAd-p53 (from […] to 2×10^9 rAd-p53 particles/ml of solution) was investigated in combination with CI-1 in a range of 5–20 μm. The effects of individual and combination treatment was determined in the in DLD1, RKO, HLF and SK-Hep1 cells was investigated in substantial accordance with the teaching of Examples 2 and 3 herein. The percentage of apoptotic cells was determined at 17 hours post treatment (with the exception of U87 cells (24 hours) and HeLa cells (68 hours)) with annexin V positive staining. The results are presented in graphical format in FIG. 3 of the attached drawings. In brief, the results were as follows:\nTo quantitate the increased efficacy of rAd-p53 induced cell killing in tumor cell lines in response to CI-1 treatment, HLF cells were infected with increasing concentrations of rAd-p53 with or without 10 μM CI-1, and assayed for percentage apoptotic cells by annexin V-FITC staining 42 hours post-treatment in substantial accordance with the teaching of Example 3 herein. […] No increase in annexin V-FITC positive cells was detected at 1×10^5 particles/ml rAd-p53 with or without 10 μM CI-1. At 1×10^6 particles/ml rAd-p53, the percentage apoptotic cells without CI-1 was 14%, while 40% of annexin V positive cells was detected when cell were treated with 10 μM CI-1. At a concentration of 1×10^7 ACN53 particles/ml, 17% annexin V positive without and 63% with 10 μM CI-1 was detected. At 1×10^8 particles/ml, 52% were annexin V positive without and 70% positive with inhibitor treatment. At a dose of 1×10^9 particles of rAd-p53, however, the percentage annexin V positive was about the same for both 77% without and 74% with 10 μM CI-1. […] concentration of rAd-p53 was sufficient to induce approximately 50% cell death, while only a 1×10^7 particle/ml concentration rAd-p53 was needed to induce approximately the same percentage of cell death when 10 μM CI-1 as added.\n(§2) The effect of an inhibitor of μ-calpains, CI-1 (N-acetyl-leu-leu-norleucinal), was investigated for its ability to enhance p53 mediated apoptosis in tumor cell lines having p53+ and p53− status listed in Table1. Each cell line was treated with 5–50 μM CI-1 for 17–26 hours. To detect a G0/G1 block, bromodeoxyuridine (BrdU) incorporation followed by flow cytometric analysis was done 17 hours post-treatment as described in Example 4 herein. […] The results of these experiments are presented in FIGS. 1 and 2 of the attached drawings. In FIG. 1, each point on the graph represents percentage annexin V positive after background percentage (DMF alone) was subtracted.\n(§3) An aliquot containing approximately 1×10^6 cells of each type was placed in a T-225 flask. The effect of varying concentrations of rAd-p53 (from 1×10^7 to 2×10^9ACN53 particles/ml of solution) was investigated in combination with CI-1 in a range of 5–20 μM. In each instance, the cell line was infected with 1×10^7–1×10^9 particles/ml of cell culture with the ACN53 using the empty cassette virus (ZZCB) as a control. In each instance, the cells were exposed to the virus for a period of one hour. At the end of this time, the virus was washed off the from the cells and fresh media containing an appropriate concentration of CI-1 was added.\nHLF cells were infected at increasing log concentrations of rAd-p53 ranging from 1×10^5 to 1×10^9 for one hour at which time virus was washed off and replaced with fresh media (viral infection with no treatment) or with 10 μM calpain inhibitor 1. Cells were assayed for apoptosis by annexin V-FITC staining at 24 and 42 hours post-infection.\nCI-1 was obtained from Boehringer-Mannheim Biochemicals (Indianapolis, Ind.). The CI-1 containing media was prepared as follows. CI-1 was diluted in dimethylformamide (DMF) to a concentration of 33.3 μM/μl. […]"}, "SK-Hep1 cells": {"system": "SK-Hep1 cells", "conditions": "for Percent Annexin V Positive Staining: 26 hours post treatment", "experimental": "as §1, §2, §3\n(§4) CI-1 was obtained from Boehringer-Mannheim Biochemicals (Indianapolis, Ind.). The CI-1 containing media was prepared as follows. CI-1 was diluted in dimethylformamide (DMF) to a concentration of 33.3 μM/μl. The CI-1 solution in DMF was added to achieve a final concentration in the media of 5 or 10 μM final concentration of CI-1. An equivalent volume of DMF alone was added to the control cells. Calpain inhibitor 2, N-acetyl-leu—leu-methioninal (Boehringer Mannheim) was added to cell lines at 5–50 μM final concentration with or without rAd-p53 for 26 hours.\n(§5) At a time of 17 (or 26 hours) post infection, the percentage of cells undergoing apoptosis was determined by convential apoptotic markers. Apoptosis was monitored visually by observing blebbed nuclei characteristic of apoptosis, by propidium iodide staining (using propidium iodide commercially available from Molecular Probes, Inc.) followed by flow cytometric analysis to look for subgenomic populations of cells, and by labeling cells with annexin V-FITC (commercially available from Boehringer Mannheim) in substantial accordance with the instructions provided by the manufacturer, followed by flow cytometric analysis on a FACScan Flow Cytometer (commercially available from Becton Dickinson)."}, "DLD1 cells": {"system": "DLD1 cells", "conditions": "for Percent Annexin V Positive Staining: 26 hours post treatment", "experimental": "as §1, §2, §3, §4, §5"}, "HeLa cells": {"system": "HeLa cells", "conditions": "for Percent Annexin V Positive Staining: 44 hours post treatment", "experimental": "as §1, §2, §3, §4, §5"}, "RKO cells": {"system": "RKO cells", "conditions": "for Percent Annexin V Positive Staining: 26 hours post treatment", "experimental": "as §1, §2, §3, §4, §5"}, "[1]": {"conditions": "10 μM CI-1, 17 hours post treatment"}}, "note": "Values joined by “and” are separate entries in the source; they are usually repeats but may differ in a detail not shown here. Identical values can stand only once. Square brackets hold non-standard residues; d marks the D form. Peptide text beside a SMILES is read from it. Nle = CCCC[C@H](N)C(=O)O", "data": [{"smiles": "CCCC[C@@H](C=O)NC(=O)[C@H](CC(C)C)NC(=O)[C@H](CC(C)C)NC(C)=O", "note": "[CI-1, N-acetyl-leu-leu-norleucinal] (Ac-Leu-Leu-[Nle]-aldehyde)", "values": [{"measurement": "Percentage of Cells Undergoing Apoptosis", "setting": "HLF cells; [1]", "value": 7, "unit": "%"}, {"measurement": "annexin V staining", "setting": "HLF cells; 10 μM CI-1 alone, 42 hours post-treatment", "value": 3, "unit": "%"}, {"measurement": "Percent Annexin V Positive Staining", "setting": "HLF cells; CI-1 10 μM", "value": 27, "unit": "%"}, {"measurement": "Percent Annexin V Positive Staining", "setting": "HLF cells; CI-1 20 μM", "value": 27, "unit": "%"}, {"measurement": "Percent Annexin V Positive Staining", "setting": "HLF cells; CI-1 30 μM", "value": 33, "unit": "%"}, {"measurement": "Percent Annexin V Positive Staining", "setting": "HLF cells; CI-1 40 μM", "value": 20, "unit": "%"}, {"measurement": "Percent Annexin V Positive Staining", "setting": "HLF cells; CI-1 50 μM", "value": 21, "unit": "%"}, {"measurement": "decrease in the particles/ml of rAd-p53 needed to induce approximately 50% cell death", "setting": "HLF cells; treatment with 10 μM CI-1 at 42 hours", "value": "approximately two log decrease"}, {"measurement": "Percent Annexin V Positive Staining", "setting": "SK-Hep1 cells; CI-1 10 μM", "value": 32, "unit": "%"}, {"measurement": "Percent Annexin V Positive Staining", "setting": "SK-Hep1 cells; CI-1 20 μM", "value": 66, "unit": "%"}, {"measurement": "Percent Annexin V Positive Staining", "setting": "SK-Hep1 cells; CI-1 30 μM", "value": 73, "unit": "%"}, {"measurement": "Percent Annexin V Positive Staining", "setting": "SK-Hep1 cells; CI-1 40 μM", "value": 75, "unit": "%"}, {"measurement": "Percent Annexin V Positive Staining", "setting": "SK-Hep1 cells; CI-1 50 μM", "value": 73, "unit": "%"}, {"measurement": "Percentage of Cells Undergoing Apoptosis", "setting": "SK-Hep1 cells; [5 μM] CI-1, 17 hours post treatment", "value": 11, "unit": "%"}, {"measurement": "Percentage of Cells Undergoing Apoptosis", "setting": "DLD1 cells; [1]", "value": 15, "unit": "%"}, {"measurement": "Percent Annexin V Positive Staining", "setting": "DLD1 cells; CI-1 10 μM", "value": 15, "unit": "%"}, {"measurement": "Percent Annexin V Positive Staining", "setting": "DLD1 cells; CI-1 20 μM", "value": 17, "unit": "%"}, {"measurement": "Percent Annexin V Positive Staining", "setting": "DLD1 cells; CI-1 30 μM", "value": 17, "unit": "%"}, {"measurement": "Percent Annexin V Positive Staining", "setting": "DLD1 cells; CI-1 50 μM", "value": 18, "unit": "%"}, {"measurement": "Percentage of Cells Undergoing Apoptosis", "setting": "HeLa cells; 10 μM CI-1, 68 hours post treatment", "value": 8.3, "unit": "%"}, {"measurement": "Percent Annexin V Positive Staining", "setting": "HeLa cells; CI-1 10 μM", "value": 28, "unit": "%"}, {"measurement": "Percent Annexin V Positive Staining", "setting": "HeLa cells; CI-1 20 μM", "value": 48, "unit": "%"}, {"measurement": "Percent Annexin V Positive Staining", "setting": "HeLa cells; CI-1 30 μM", "value": 55, "unit": "%"}, {"measurement": "Percent Annexin V Positive Staining", "setting": "HeLa cells; CI-1 40 μM", "value": 67, "unit": "%"}, {"measurement": "Percent Annexin V Positive Staining", "setting": "HeLa cells; CI-1 50 μM", "value": 80, "unit": "%"}, {"measurement": "induction of apoptosis", "setting": "HeLa cells; higher concentrations of CI-1, HeLa have E6 mediated degradation of p53", "value": "induced to apoptosis"}, {"measurement": "Percent Annexin V Positive Staining", "setting": "RKO cells; CI-1 10 μM", "value": 13, "unit": "%"}, {"measurement": "Percent Annexin V Positive Staining", "setting": "RKO cells; CI-1 20 μM", "value": "52% and 33%"}, {"measurement": "Percent Annexin V Positive Staining", "setting": "RKO cells; CI-1 50 μM", "value": 57, "unit": "%"}, {"measurement": "Percentage of Cells Undergoing Apoptosis", "setting": "RKO cells; [20 μM] CI-1, 17 hours post treatment", "value": 13, "unit": "%"}]}]}
